31 compounds from US11174253B2, “Compound and pharmaceutical composition containing the same” (ALPHALA CO., LTD., priority 2017, dated 2021) can be followed below.

For the experiment, the system named is hepatocellular carcinoma cell line Hep3B. Briefly: Growth inhibition of Hep3B cells, 48 hr treatment, Hoechst 33342 nucleus count (GE InCell 2200). Type of experiment: cell-based. The settings on record: Homo sapiens. Here is the method:
The potency of selected compounds was defined by the growth inhibition ability to the hepatocellular carcinoma cell line Hep3B. The Hep3B cells were treated with selected compounds for 48 hr under 37° C., 5% CO2, and 95% relative humidity.
The number of treated cells was determined by GE InCell 2200 system, and treated cells were stained with Hoechst 33342 which can reveal the remained nucleus in culture plate. The proportion of survival cells then were calculated with the ratio of treated/non-treated cells. The growth inhibition/cytotoxic effect of selected compounds were evaluated by the following protocol of NCI-60 screening platform. The human tumor cell lines are plating on a 96 well plate in a fixed density 24 hr prior compound treatment. Compounds with multiple concentrations are then added into each well for further 48 hr incubation. Cell viability is assessed by MTS method and the potency of compound is represented by GI50 and LC50 calculated by MTS result.
Herein, the “Ratio in 10 μM (%)” in the following Tables 1-6 refers to the ratio of the number of tumor cells treated with 10 μM of selected compounds to the number of non-treated tumer cells.

[1] abbreviates: Table 5, ratio of number of tumor cells treated with 10 μM compound to non-treated cells.
Setting [2] is: Table 6, ratio of number of tumor cells treated with 10 μM compound to non-treated cells.
Where [3] appears, read: Table 1, ratio of number of tumor cells treated with 10 μM compound to non-treated cells.

Turning to `Cc1cc(Oc2sc(NC(=O)c3ccc([N+](=O)[O-])s3)nc2-c2ccc(F)cc2)cc(C)c1Br` [Compound 5-100, N-(5-(4-bromo-3,5-dimethylphenoxy)-4-(4-fluorophenyl)thiazol-2-yl)-5-nitrothiophene-2-carboxamide], under setting [1], the viability – broadly, a read-out of living cells in per cent, often relative to untreated cells – at 10 µM stood at 30%. For `CCOc1ccc(-c2nc(NC(=O)c3ccc([N+](=O)[O-])o3)sc2Cc2ccccc2)cc1` [Compound 6-33, N-(5-benzyl-4-(4-ethoxyphenyl)thiazol-2-yl)-5-nitrofuran-2-carboxamide], under setting [2], the viability at 10 µM was determined as 27%. For the compound `CC(C)(C)c1ccc(-c2nc(NC(=O)c3ccc([N+](=O)[O-])s3)sc2-c2ccccc2Br)cc1` [Compound 6-57, N-(5-(2-bromophenyl)-4-(4-(tert-butyl)phenyl)thiazol-2-yl)-5-nitrothiophene-2-carboxamide], the viability at 10 µM under setting [2] worked out at 29%.

Consider `O=C(Nc1nc(-c2ccc([N+](=O)[O-])cc2)c(Oc2ccccc2)s1)c1ccc([N+](=O)[O-])s1` [Compound 5-60, 5-nitro-N-(4-(4-nitrophenyl)-5-phenoxythiazol-2-yl)thiophene-2-carboxamide], for which the viability at 10 µM under setting [1] came to 38%. On the same count and under the same terms, under `O=C(Nc1nc(-c2ccc(OC(F)(F)F)cc2)c(Oc2ccccc2)s1)c1ccc([N+](=O)[O-])s1` [Compound 5-84, 5-nitro-N-(5-phenoxy-4-(4-(trifluoromethoxy)phenyl)thiazol-2-yl)thiophene-2-carboxamide] stands 34%.

For `CCCOc1ccc(-c2nc(NC(=O)c3ccc([N+](=O)[O-])s3)sc2Oc2ccccc2F)cc1` [Compound 5-58, N-(5-(2-fluorophenoxy)-4-(4-propoxyphenyl)thiazol-2-yl)-5-nitrothiophene-2-carboxamide], under setting [1], the viability at 10 µM stood at 43%. Take `Nc1nc2ccc(CC(=O)Nc3nnc(-c4ccccc4OC(F)(F)F)o3)cc2s1` [Compound 2-4, 2-(2-aminobenzo[d]thiazol-6-yl)-N-(5-(2-(trifluoromethoxy)phenyl)-1,3,4-oxadiazol-2-yl)acetamide]: where the note is “Table 2, ratio of number of tumor cells treated with 10 μM compound to non-treated cells”, the viability at 10 µM stood at 88%. As to `CCOc1ccc(-c2nc(NC(=O)c3ccc([N+](=O)[O-])s3)sc2Oc2ccccc2)c(F)c1` [Compound 5-53, N-(4-(4-ethoxy-2-fluorophenyl)-5-phenoxythiazol-2-yl)-5-nitrothiophene-2-carboxamide], the viability at 10 µM under setting [1] is 41%. Turning to `CC(C)(C)c1ccc(-c2nc(NC(=O)c3ccc([N+](=O)[O-])s3)sc2Br)cc1` [Compound 6-60, N-(5-bromo-4-(4-(tert-butyl)phenyl)thiazol-2-yl)-5-nitrothiophene-2-carboxamide], under setting [2], the viability at 10 µM amounted to 45%. Turning to `CCOc1ccc(-c2cnc(NC(=O)Cc3ccc4nc(N)sc4c3)[nH]2)c(OCCOC)c1` [Compound 4-3, 2-(2-aminobenzo[d]thiazol-6-yl)-N-(5-(4-ethoxy-2-(2-methoxyethoxy)phenyl)-1H-imidazol-2-yl)acetamide], for the setting “Table 4, ratio of number of tumor cells treated with 10 μM compound to non-treated cells”, the viability at 10 µM was 40%. As to `O=C(Nc1nc(-c2cccc([N+](=O)[O-])c2)c(Oc2ccccc2)s1)c1ccc([N+](=O)[O-])s1` [Compound 5-3, 5-nitro-N-(4-(3-nitrophenyl)-5-phenoxythiazol-2-yl)thiophene-2-carboxamide], under setting [1], the viability at 10 µM came out at 82%. With `CCCCOc1ccc(-c2nnc(NC(=O)Cc3ccc4nc(N)sc4c3)s2)cc1` [Compound 1-21, 2-(2-aminobenzo[d]thiazol-6-yl)-N-(5-(4-butoxyphenyl)-1,3,4-thiadiazol-2-yl)acetamide], the viability at 10 µM under setting [3] turned out to be 81%. The same measure, in the same setting: the result for `CCCc1ccc(-c2nnc(NC(=O)Cc3ccc4nc(N)sc4c3)s2)cc1` [Compound 1-33, 2-(2-aminobenzo[d]thiazol-6-yl)-N-(5-(4-propylphenyl)-1,3,4-thiadiazol-2-yl)acetamide] reads 44%. For `COc1cc(-c2nc(NC(=O)c3ccc([N+](=O)[O-])s3)sc2Oc2ccccc2)cc(OC)c1OC` [Compound 5-61, 5-nitro-N-(5-phenoxy-4-(3,4,5-trimethoxyphenyl)thiazol-2-yl)thiophene-2-carboxamide], the viability at 10 µM under setting [1] was determined as 59%. The same measure, in the same setting: under `O=C(Nc1nc(-c2ccc(F)cc2)c(Oc2ccc(OC(F)(F)F)cc2)s1)c1ccc([N+](=O)[O-])s1` [Compound 5-33, N-(4-(4-fluorophenyl)-5-(4-(trifluoromethoxy)phenoxy)thiazol-2-yl)-5-nitrothiophene-2-carboxamide] stands 40%; under `CNC(=O)c1ccc(-c2nc(NC(=O)c3ccc([N+](=O)[O-])s3)sc2Oc2ccc(F)cc2)cc1` [Compound 5-35, N-(5-(4-fluorophenoxy)-4-(4-(methylcarbamoyl)phenyl)thiazol-2-yl)-5-nitrothiophene-2-carboxamide], 68%. Still for that read-out and setting: under `CCCCOc1ccc(-c2nc(NC(=O)c3ccc([N+](=O)[O-])s3)sc2Oc2cc(C)c(Br)c(C)c2)cc1` [Compound 5-87, N-(5-(4-bromo-3,5-dimethylphenoxy)-4-(4-butoxyphenyl)thiazol-2-yl)-5-nitrothiophene-2-carboxamide] stands 36%; under `Cc1ccc(Oc2sc(NC(=O)c3ccc([N+](=O)[O-])s3)nc2-c2ccc(C(C)(C)C)cc2)cc1` [Compound 5-105, N-(4-(4-(tert-butyl)phenyl)-5-(p-tolyloxy)thiazol-2-yl)-5-nitrothiophene-2-carboxamide], 30%; under `CCCCc1ccc(-c2nc(NC(=O)c3ccc([N+](=O)[O-])s3)sc2Oc2ccc(C(C)(C)CC)cc2)cc1` [Compound 5-104, N-(4-(4-butylphenyl)-5-(4-(tert-pentyl)phenoxy)thiazol-2-yl)-5-nitrothiophene-2-carboxamide], 56%. As for `CCCOc1ccc(-c2nc(NC(=O)c3ccc([N+](=O)[O-])s3)sc2C(=O)OCC)cc1` [Compound 6-23, ethyl 2-(5-nitrothiophene-2-carboxamido)-4-(4-propoxyphenyl)thiazole-5-carboxylate], the viability at 10 µM under setting [2] stood at 33%. Turning to `O=C(Nc1nc(-c2ccccc2[N+](=O)[O-])cs1)c1ccc([N+](=O)[O-])s1` [Compound 6-11, 5-nitro-N-(4-(2-nitrophenyl)thiazol-2-yl)thiophene-2-carboxamide], the viability at 10 µM under setting [2] stood at 62%. As to `CC(C)(C)C#Cc1ccc(-c2nc(NC(=O)c3ccc([N+](=O)[O-])s3)sc2Oc2ccccc2)s1` [Compound 5-41, N-(4-(5-(3,3-dimethylbut-1-yn-1-yl)thiophen-2-yl)-5-phenoxythiazol-2-yl)-5-nitrothiophene-2-carboxamide], the viability at 10 µM under setting [1] is 41%. `COc1ccc(-c2sc(NC(=O)c3ccc([N+](=O)[O-])s3)nc2-c2ccc(C)cc2)cc1OC` [Compound 6-4, N-(5-(3,4-dimethoxyphenyl)-4-(p-tolyl)thiazol-2-yl)-5-nitrothiophene-2-carboxamide]: the viability at 10 µM under setting [2] is 64%. On to `CCCc1ccc(Oc2sc(NC(=O)c3ccc([N+](=O)[O-])s3)nc2-c2ccc(C(C)(C)C)cc2)cc1` [Compound 5-88, N-(4-(4-(tert-butyl)phenyl)-5-(4-propylphenoxy)thiazol-2-yl)-5-nitrothiophene-2-carboxamide], for which the viability at 10 µM under setting [1] stood at 36%. In the case of `CC(C)(C)c1ccc(-c2nc(NC(=O)c3ccc([N+](=O)[O-])s3)sc2-c2cccc(Br)c2)cc1` [Compound 6-58, N-(5-(3-bromophenyl)-4-(4-(tert-butyl)phenyl)thiazol-2-yl)-5-nitrothiophene-2-carboxamide], under setting [2], the viability at 10 µM turned out to be 32%. Take `CCOc1ccc(-c2nc(NC(=O)c3ccc([N+](=O)[O-])s3)sc2Oc2ccc(C(F)(F)F)cc2)cc1` [Compound 5-25, N-(4-(4-ethoxyphenyl)-5-(4-(trifluoromethyl)phenoxy)thiazol-2-yl)-5-nitrothiophene-2-carboxamide]: the viability at 10 µM under setting [1] stood at 32%. With `CCOc1cc(OCC)c(-c2nnc(NC(=O)Cc3ccc4nc(N)sc4c3)s2)c(OCC)c1` [Compound 1-24, 2-(2-aminobenzo[d]thiazol-6-yl)-N-(5-(2,4,6-triethoxyphenyl)-1,3,4-thiadiazol-2-yl)acetamide], the viability at 10 µM under setting [3] worked out at 88%.

As for `CCOc1ccc(-c2nc(NC(=O)c3ccc([N+](=O)[O-])s3)sc2Oc2ccccc2)cn1` [Compound 5-51, N-(4-(6-ethoxypyridin-3-yl)-5-phenoxythiazol-2-yl)-5-nitrothiophene-2-carboxamide], under setting [1], the viability at 10 µM worked out at 43%. Regarding `CCOc1ccc(-c2nc(NC(=O)Cc3ccc4nc(N)sc4c3)sc2Oc2ccccc2)cc1` [Compound 3-13, 2-(2-aminobenzo[d]thiazol-6-yl)-N-(4-(4-ethoxyphenyl)-5-phenoxythiazol-2-yl)acetamide], for the setting “Table 3, ratio of number of tumor cells treated with 10 μM compound to non-treated cells”, the viability at 10 µM worked out at 58%. For the compound `CCCOc1ccc(Oc2sc(NC(=O)c3ccc([N+](=O)[O-])s3)nc2-c2ccc(C(C)(C)C)cc2)cc1` [Compound 5-95, N-(4-(4-(tert-butyl)phenyl)-5-(4-propoxyphenoxy)thiazol-2-yl)-5-nitrothiophene-2-carboxamide], the viability at 10 µM under setting [1] worked out at 38%.

Consider `CCOc1ccc(-c2nnc(N(C)C(=O)Cc3ccc4nc(N)sc4c3)s2)c(OCC)c1` [Compound 1-36, 2-(2-aminobenzo[d]thiazol-6-yl)-N-(5-(2,4-diethoxyphenyl)-1,3,4-thiadiazol-2-yl)-N-methylacetamide], for which the viability at 10 µM under setting [3] amounted to 53%.
